{
  "source": "patent US7731945B2",
  "about": "“Immunotherapy for reversing immune suppression” (Immuno-Rx, Inc., priority 2001, dated 2010)",
  "key": {"[1]": {"system": "endogenous suppression of T cells caused by cancer lesions", "assay": "NSAID codelivered for contrasuppression in the NCM regimen", "format": "in vivo, human", "conditions": "for effectiveness as NSAID for blocking endogenous suppression of T cells: codelivery with low dose cyclophosphamide and NCM", "from_the_text": "It is preferable to block endogenous suppression of T cells, such as caused by various cancer lesions. Blocking is effected by the codelivery of low dose cyclophosphamide and a nonsteroidal anti-inflammatory drug (NSAID). The NSAID of choice is indomethacin. […] Side effects of NSAIDs are to be aggressively treated with […] and a prostaglandin E analog. Zinc and multivitamins are useful agents to help restore T cell immunity. Treatment with contrasuppression and zinc without the NCM is ineffective."}, "[2]": {"system": "T lymphocytes", "assay": "Cytokine induction by OKT-3 and/or PHA plus Ciprofloxacin, cells incubated in flasks", "format": "cell-based, human", "from_the_text": "The buffy coat white cells of human blood from multiple HIV-negative hepatitis virus-negative donors is collected. In an alternative embodiment, animals are the cell source for veterinary uses. The cells from the donors are pooled and layered on ficoll hypaque gradients (Pharmacia) to yield lymphocytes free of neutrophils and erythrocytes. Alternative methods could be used that would result in the same starting lymphocyte population as are known in the art.\nThe lymphocytes are washed and distributed in X vivo-10 media (Whittaker Bioproducts) to surface activated cell culture flasks for selection of cell subsets (MICROCELLECTOR™ T-25 Cell Culture Flasks), which contain immobilized stimulants, i.e., mitogens like PHA. In one set of experiments, X vivo-15 and X vivo-20 media were used as indicated. The immobilization process for the stimulants is as described by the manufacturer for immobilizing various substances for panning procedures, i.e., separating cells, in the flasks. Alternatively, the lymphocytes are exposed to stimulants e.g., PHA for 2-4 hours then washed three times.\nThe cells are incubated for 24 to 48 hours in X vivo-10 media with 80 μg/ml Ciprofloxacin (Miles Lab) at 37° in a CO2/air incubator. […] Generally, the HSA is used at 0.1 to 0.5% (weight by volume). Following incubation, the supernatants are poured off and collected. Human serum albumin (HSA) may be added to stabilize further the interleukins if HSA-free media is used for generations. The supernatants are store at 4° C. to −70°."}, "[3]": {"system": "thymocyte and splenocyte", "conditions": "in vivo thymosin α1 5 μg/animal/day, NCM 50 units IL-2 equivalence; FIGS. 21, 22; cited from earlier work"}},
  "data": [
    {"compound": "Cc1ccc(-c2cc(C(F)(F)F)nn2-c2ccc(S(N)(=O)=O)cc2)cc1", "note": "[Celebrex®]", "values": [
      {"measurement": "effectiveness as NSAID for blocking endogenous suppression of T cells", "setting": "[1]", "result": "less effective"}
    ]},
    {"compound": "CC(C)Cc1ccc(C(C)C(=O)O)cc1", "note": "(stereo not shown) [Ibuprofen]", "values": [
      {"measurement": "histological responses", "setting": "[1]; as NSAID of the regimen", "result": "characteristic of a TH2 rather than TH1 mediated response"},
      {"measurement": "effectiveness as NSAID for blocking endogenous suppression of T cells", "setting": "[1]", "result": "effective"}
    ]},
    {"compound": "CS(=O)(=O)c1ccc(C2=C(c3ccccc3)C(=O)OC2)cc1", "note": "[Vioxx®]", "values": [
      {"measurement": "toxicity", "setting": "[1]; as NSAID of the regimen", "result": "causing gastritis in many patients"},
      {"measurement": "effectiveness as NSAID for blocking endogenous suppression of T cells", "setting": "[1]", "result": "less effective"}
    ]},
    {"compound": "COc1ccc2c(c1)c(CC(=O)O)c(C)n2C(=O)c1ccc(Cl)cc1", "note": "[indomethacin]", "values": [
      {"measurement": "toxicity", "setting": "[1]; as NSAID of the regimen", "result": "arguably the most toxic"},
      {"measurement": "effectiveness as NSAID for blocking endogenous suppression of T cells", "setting": "[1]", "result": "most effective NSAID"}
    ]},
    {"compound": "OKT-3: monoclonal antibody (Ortho) which induces T lymphocytes to proliferate and produce interleukins", "values": [
      {"measurement": "GM-CSF", "setting": "[2]", "result": 75, "unit": "pg/mL"},
      {"measurement": "IFN-Y", "setting": "[2]", "result": 11280, "unit": "pg/mL"},
      {"measurement": "IL-1-β", "setting": "[2]", "result": 1125, "unit": "pg/mL"},
      {"measurement": "IL-6", "setting": "[2]", "result": 1980, "unit": "pg/mL"},
      {"measurement": "TNF-α", "setting": "[2]", "result": 2500, "unit": "pg/mL"}
    ]},
    {"compound": "Thymosin α1", "values": [
      {"measurement": "thymocyte and splenocyte in vitro responses to media, rIL-1, rIL-2 and NCM", "setting": "[3]", "result": "increase many of the responses"}
    ]}
  ]
}
